Assay results from US5817646A, “Polar lipid composition of plant origin” (Laboratoires Inocosm, priority 1991, dated 1998).

Target: T1, human leukocytic elastase (HLE) (Homo sapiens, UniProt P08246)
T1 sequence (P08246 30-267): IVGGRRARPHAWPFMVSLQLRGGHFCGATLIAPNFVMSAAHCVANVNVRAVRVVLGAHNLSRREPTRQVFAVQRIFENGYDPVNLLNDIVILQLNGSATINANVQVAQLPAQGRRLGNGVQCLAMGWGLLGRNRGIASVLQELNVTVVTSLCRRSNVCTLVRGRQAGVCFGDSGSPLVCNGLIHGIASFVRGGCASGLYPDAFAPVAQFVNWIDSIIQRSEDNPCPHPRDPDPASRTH
Assay: Inhibition of human leukocytic elastase, kinetics of p-nitroaniline release at 410 nm
Assay type: biochemical
Details: read-out: percentage of inhibition of the anti-elastase activity after 10 min
Description: A test to ascertain the activity of a polar lipid mixture in accordance with the invention on the inhibition of a specific enzyme, human leukocytic elastase (HLE), was carried out at the Connective Tissue Laboratory of the CNRS at Cretail (France). HLE is able to destroy elastin and therefore cause cell aging. HLE also detrimentally effects the arterial walls.
The activity of the mixture in accordance with the invention was compared with that of oleic acid, the reference substance.
This test measures the inhibition of the enzymatic activity by different preparations tested by following the kinetics at 410 nm of the degradation of a substrate, S, corresponding essentially to elastin: Me-O-Suc-Ala2 -Pro-Val-pNa(N-Methoxy-succinyl-Ala-Ala-Pro-Val-p-Nitroanilide). In this test, changes in the concentration of p-Nitroaniline, released due to the effect of the activity of HLE on the substrate, S, is measured over time.
In order to carry out these tests:
either 0.1M Tris-Cl+0.01% Triton X-100 at pH 8
was used as the reaction buffer, B. […]
Spectrophotometer readings were taken at 410 nm relative to the p-Nitroaniline concentration and the results obtained were then transferred to Curves 1 to 5, which correspond to the cell samples of the same numbering. […]
On each of these curves, the time in min was recorded on the abscissa and the optical deviation, OD, read at 410 nm, was recorded on the ordinate. […]

CCCCCCCC/C=C\CCCCCCCC(=O)O [Reference oleic acid, oleic acid] showed an inhibition at 0.1 µg/mL (oleic acid at 0.1 μg/ml) of 36% and an inhibition at 1 µg/mL (oleic acid at 1.0 μg/ml) of 84%.
